# Data: patent EP2088143A1, “Novel inhibitors of mycobacterium tuberculosis complex cytochrome P450 CYP121” (priority 2008, dated 2009)
# How the values were obtained:
# CYP121 [1] = biological target: T1, CYP121 (Mycobacterium tuberculosis, UniProt P9WPP7); experiment: CYP121 enzyme assay: transformation of cyclodipeptide with electron transport chain and NADPH, RP-HPLC analysis; type: biochemical; details: 30°C; for transformation of cyclodipeptide by CYP121: ~0.1 mM cyclodipeptide, 5 µM CYP121, electron transport chain, 0-60 min
# Target sequence in this assay (P9WPP7 2-396 limits assumed): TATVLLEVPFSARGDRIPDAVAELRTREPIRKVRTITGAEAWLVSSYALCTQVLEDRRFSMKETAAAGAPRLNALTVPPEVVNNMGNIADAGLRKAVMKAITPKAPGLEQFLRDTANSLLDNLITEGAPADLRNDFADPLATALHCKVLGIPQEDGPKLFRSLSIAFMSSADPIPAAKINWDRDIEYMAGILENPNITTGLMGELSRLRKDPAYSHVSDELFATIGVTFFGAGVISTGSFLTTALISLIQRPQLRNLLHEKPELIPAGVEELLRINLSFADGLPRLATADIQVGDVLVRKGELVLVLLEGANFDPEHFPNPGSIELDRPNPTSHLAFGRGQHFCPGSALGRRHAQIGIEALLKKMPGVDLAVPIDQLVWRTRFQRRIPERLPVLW
# CYP121 [2] = biological target: T1, CYP121; experiment: Inhibition of CYP121 activity: cyclo(L-Tyr-L-Tyr) transformation in the presence of added compound, RP-HPLC analysis; type: biochemical
# Target sequence in this assay (P9WPP7 2-396 limits assumed): as above
# CYP121 [3] = biological target: T1, CYP121; experiment: Spectral binding titration of CYP121 by cyclodipeptide (UV/Vis absorbance spectroscopy, type I binding); details: 2 µM CYP121, Tris-HCl 50 mM pH 7.6 10% glycerol; ΔA388-ΔA416 versus cyclodipeptide concentration; mean of four experiments; read-out: binding constant (Ks)
# CYP121 [4] = biological target: T1, CYP121; experiment: Co-crystallisation with CYP121 and X-ray structure of the complex; type: binding; details: co-crystals; 0.2 mM cyclo(L-Tyr-L-Phe), 0.8 mM cyclo(L-Tyr-L-Ala)
# Target sequence in this assay (P9WPP7 2-396 limits assumed): as above
# [5] = biological target: Mycobacterium tuberculosis cytochrome P450 CYP121 (Mycobacterium bovis BCG Pasteur (100% identical to Mycobacterium tuberculosis H37Rv)) (UniProt P9WPP7); experiment: cell-based or functional assay
# [6] = biological target: Mycobacterium tuberculosis cytochrome P450 CYP121 (Mycobacterium bovis BCG Pasteur (100% identical to Mycobacterium tuberculosis H37Rv)) (UniProt P9WPP7); experiment: spectrally estimated dissociation constant (Ks); UV/Vis titration of 2 µM CYP121, ΔA388-ΔA416 fitted to a hyperbola
# Mycobacterium tuberculosis cytochrome P450 CYP121 (Mycobacterium bovis BCG Pasteur (100% identical to Mycobacterium tuberculosis H37Rv)), sequence (P9WPP7 whole entry): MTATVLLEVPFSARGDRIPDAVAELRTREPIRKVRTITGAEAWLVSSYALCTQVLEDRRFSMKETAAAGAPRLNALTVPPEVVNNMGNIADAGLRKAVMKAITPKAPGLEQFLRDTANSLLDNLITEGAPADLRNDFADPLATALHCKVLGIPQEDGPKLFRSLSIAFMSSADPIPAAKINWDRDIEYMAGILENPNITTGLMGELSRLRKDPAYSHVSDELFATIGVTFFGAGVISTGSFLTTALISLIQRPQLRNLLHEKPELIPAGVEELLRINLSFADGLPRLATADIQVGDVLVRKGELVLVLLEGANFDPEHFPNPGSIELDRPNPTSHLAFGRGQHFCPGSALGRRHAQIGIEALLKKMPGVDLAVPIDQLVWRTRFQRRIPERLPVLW
compound,measurement,setting,value
"O=C1N[C@@H](Cc2ccc(O)c(O)c2)C(=O)N[C@H]1Cc1ccc(O)cc1 [cyclo(L-DOPA-L-Tyr), cyclo(L-3 or 5,4-dihydroxyphenylalanine-L-Tyr)]",transformation of cyclodipeptide by CYP121,CYP121 [1]; NADPH,no transformation was detected
same,inhibition of cyclo(L-Tyr-L-Tyr) transformation,"CYP121 [2]; 1.2 mM added cyclodipeptide, 60 min incubation at 30°C",completely inhibits
same,Kd,CYP121 [3],14.7 ± 1.5 µM
C[C@@H]1NC(=O)[C@H](Cc2ccc(O)cc2)NC1=O [cyclo(L-Tyr-L-Ala)],binding to CYP121 (crystal structure of the complex),CYP121 [4],bind to CYP121
O=C1N[C@@H](Cc2ccc(O)cc2)C(=O)N[C@H]1Cc1ccccc1 [cyclo(L-Tyr-L-Phe)],binding to CYP121 (crystal structure of the complex),CYP121 [4],bind to CYP121
O=C1N[C@@H](Cc2c[nH]c3ccccc23)C(=O)N[C@H]1Cc1ccc(O)cc1 [cyclo(L-Tyr-L-Trp)],transformation of cyclodipeptide by CYP121,CYP121 [1]; NADPH,"can be transformed by CYP121, albeit less efficiently than cyclo(L-Tyr-L-Tyr)"
same,initial cyclo(L-Tyr-L-Tyr) detected after 60 min incubation,"CYP121 [2]; 0.11 mM cyclo(L-Tyr-L-Tyr), 1.2 mM cyclo(L-Tyr-L-Trp), 60 min, 30°C, completely absent after 30 min without inhibitor",~30%
same,Kd,CYP121 [3],63.4 ± 8.8 µM
O=C1N[C@@H](Cc2ccc(O)cc2)C(=O)N[C@H]1Cc1ccc(O)cc1 [cyclo(L-Tyr-L-Tyr)],time to complete conversion of cyclo(L-Tyr-L-Tyr) by CYP121,CYP121 [1]; no inhibitor added,less than 30 min
same,rate of cyclo(L-Tyr-L-Tyr) transformation,"CYP121 [1]; in vitro conditions, exogenous electron transport chain, NADPH",3.8 nmoles/min/nmole of CYP121
same,transformation of cyclodipeptide by CYP121,CYP121 [1]; NADPH,complete consumption
cyclo(L-Tyr-L-Trp) (peptide),inhibition of cyclo(L-Tyr-L-Tyr) transformation by CYP121 with 1.2 mM cyclo(L-Tyr-L-Trp) (RP-HPLC),[5],30
cyclo(L-Tyr-L-Tyr) (peptide),rate of cyclo(L-Tyr-L-Tyr) transformation (nmoles/min/nmole of CYP121),[5],3.8
same,Kd,[6],27.6 µM
